The numbers were not newly measured in patent US20220087960A1, “Oral Pharmaceutical Immediate Release Composition” (Aardvark Therapeutics Inc., priority 2020, published 2022), which cites them from elsewhere.

This series concerns rodent obesity models. To be noted: cited from earlier work.

On to `CC[N+](CC)(CC(=O)Nc1c(C)cccc1C)Cc1ccccc1.O=C([O-])c1ccccc1` [DB, benzyl-[2-(2,6-dimethylanilino)-2-oxoethyl]-diethylazanium benzoate], for which the food intake result is on record as “suppressed food intake” and the weight gain entry was “inhibited weight gain”.
